Values of other authors as cited in patent US20240361407A1, “SYSTEMS AND METHODS FOR GENERATION OF HYPERPOLARIZED MATERIALS” (priority 2021, published 2024).
In brackets after ≈: the same amount, converted by molar mass.

Conditions: aqueous solution

solubility: 60 mM (≈ 6960 µg/mL)
SMILES: O=C(O)/C=C/C(=O)O [fumaric acid]
